Measurements published in BigSolDB 2.1.

CCCCC1=NC2(CCCC2)C(=O)N1Cc1ccc(-c2ccccc2-c2nn[nH]n2)cc1
Conditions	solubility (mole fraction)
in 1,4-dioxane, 287.9 K	0.000466
in 1,4-dioxane, 293.45 K	0.000634
in 1,4-dioxane, 298 K	0.000832
in 1,4-dioxane, 303.65 K	0.00112
in 1,4-dioxane, 308.2 K	0.00142
in 1,4-dioxane, 312.9 K	0.00183
in 1,4-dioxane, 318.05 K	0.00227
in 1,4-dioxane, 322.85 K	0.00278
in THF, 278.3 K	0.00127
in THF, 282.85 K	0.00152
in THF, 288.1 K	0.00184
in THF, 292.95 K	0.00229
in THF, 297.7 K	0.00277
in THF, 303.15 K	0.00332
in THF, 308.05 K	0.00396
in THF, 312.7 K	0.00479
in THF, 318.35 K	0.00581
in THF, 322.75 K	0.00687
in acetone, 278.35 K	0.000284
in acetone, 283.15 K	0.000364
in acetone, 288.35 K	0.000444
in acetone, 293.6 K	0.00053
in acetone, 298.25 K	0.000678
in acetone, 302.95 K	0.000861
in acetone, 308.4 K	0.00105
in acetone, 312.75 K	0.00129
in acetone, 318.55 K	0.00158
in acetone, 323.1 K	0.00192
in chloroform, 277.7 K	0.0012
in chloroform, 283.3 K	0.00131
in chloroform, 287.7 K	0.00146
in chloroform, 292.7 K	0.00161
in chloroform, 297.75 K	0.00179
in chloroform, 302.85 K	0.00201
in chloroform, 307.8 K	0.00225
in chloroform, 313.4 K	0.00259
in chloroform, 317.8 K	0.00294
in chloroform, 323 K	0.00335
in ethanol, 278.6 K	0.000333
in ethanol, 283.55 K	0.000489
in ethanol, 288.5 K	0.000627
in ethanol, 292.7 K	0.000809
in ethanol, 297.8 K	0.00106
in ethanol, 303.05 K	0.00122
in ethanol, 308.5 K	0.00159
in ethanol, 313.3 K	0.0021
in ethanol, 318.5 K	0.00263
in ethanol, 323.6 K	0.00341
